{
  "source": "patent EP2077092A2",
  "about": "“System and Methods for Screening or Analyzing Targets” (Taipei Veterans General Hospital, priority 2007, dated 2009)",
  "key": {"[1]": {"parameters": "species or system Sprague-Dawley rats", "settings": "in vivo, iv, 30 mg/kg, 360 min", "description": "Adult, male Sprague-Dawley rats (280-350 g) were obtained from the Laboratory Animal Center at National Yang-Ming University (Taipei, Taiwan). These animals were specifically pathogen-free and were allowed to acclimate to their environmentally controlled quarters (24 ± 1°C and 12:12 h light-dark cycle) for at least 5 days before the experiments began. At the start of experiments, the rats were anesthetized with urethane 0.8 g/ml and chloralose 0.08 g/ml ([…], i.p.). Throughout the experimental period, anesthesia was maintained by administering one quarter of the initial dose at each hour. The experimental animals were kept warm with a heating pad throughout the experiments.\nThe HPLC system consisted of a chromatographic pump (BAS PM-80, Bioanalytical System, West Lafayette, IN, USA), an on-line injector (CMA/160, Stockholm, Sweden) equipped with a 20 µl sample loop and a UV detector (Soma S-3702, Tokyo, Japan). […] Output signal from the HPLC-UV was recorded using an EZChrom chromatographic data system (Scientific Software, San Ramon, CA, USA). […]\nFor in vivo recovery, normal saline solution containing cefoperazone (50 or 100 µg/ml) were pumped through the probes at a constant flow rate (2 µl/min) using the infusion pump (CMA/100). After a stabilization period of 2 h, the inlet (Cin) and outlet (Cout) concentrations of cefoperazone were determined by HPLC. […]"}, "Bcl-2 protein": {"system": "Bcl-2 protein", "test": "Bcl-2 protein expression in NSCs by western blot and immunohistochemistry", "assay_type": "cell-based, Sprague-Dawley (SD) rats", "settings": "siRNA or MAPK inhibitor added to IM-treated NSCs"}, "LPS-treated NSCs [2]": {"system": "LPS-treated NSCs", "test": "MTT cell survival of LPS-treated NSCs", "assay_type": "cell-based, Sprague-Dawley (SD) rats", "settings": "siRNA or U0126 added to LPS- and IM-treated NSCs"}, "caspase 8": {"system": "caspase 8", "test": "Caspase 8 activity ELISA in LPS-treated NSCs", "assay_type": "cell-based, Sprague-Dawley (SD) rats", "settings": "siRNA or U0126 (40 µM) added to LPS- and IM-treated NSCs"}, "caspase 3": {"system": "caspase 3", "test": "Caspase 3 activity ELISA in LPS-treated NSCs", "assay_type": "cell-based, Sprague-Dawley (SD) rats", "settings": "siRNA or U0126 (40 µM) added to LPS- and IM-treated NSCs"}, "LPS-treated NSCs [3]": {"system": "LPS-treated NSCs", "test": "TUNEL assay of LPS-induced apoptosis in NSCs", "assay_type": "cell-based, Sprague-Dawley (SD) rats", "settings": "siRNA or U0126 (40 µM) added to LPS- and IM-treated NSCs"}, "IL-1β": {"system": "IL-1β", "test": "IL-1β ELISA in LPS-treated NSCs", "assay_type": "cell-based, Sprague-Dawley (SD) rats", "settings": "siRNA or U0126 (40 µM) added to LPS- and IM-treated NSCs"}, "IL-6": {"system": "IL-6", "test": "IL-6 ELISA in LPS-treated NSCs", "assay_type": "cell-based, Sprague-Dawley (SD) rats", "settings": "siRNA or U0126 (40 µM) added to LPS- and IM-treated NSCs"}, "TNF-α": {"system": "TNF-α", "test": "TNF-α ELISA in LPS-treated NSCs", "assay_type": "cell-based, Sprague-Dawley (SD) rats", "settings": "siRNA or U0126 (40 µM) added to LPS- and IM-treated NSCs"}, "NSCs [4]": {"system": "NSCs", "test": "Immunofluorescent assay of MAP-2-positive cells in differentiating NSCs", "assay_type": "cell-based, Sprague-Dawley (SD) rats", "settings": "siRNA or U0126 added, Day 7 culture of IM-treated NSCs"}, "NSCs [5]": {"system": "NSCs", "test": "Immunofluorescent assay of serotonin (5-HT)-positive cells in differentiating NSCs", "assay_type": "cell-based, Sprague-Dawley (SD) rats", "settings": "siRNA or U0126 added, Day 7 culture of IM-treated NSCs"}, "NSCs [6]": {"system": "NSCs", "test": "Microdialysis with HPLC-ECD of 5-HT in the culture medium of IM-treated NSCs", "assay_type": "cell-based, Sprague-Dawley (SD) rats", "settings": "siRNA or U0126 added, Day 7 and Day 14, p<0.05"}, "c-FLIP promoter": {"system": "c-FLIP promoter", "test": "c-FLIP promoter luciferase assay in fluoxetine-treated NSCs", "assay_type": "cell-based, Sprague-Dawley rats", "settings": "fluoxetine 20 µm; full-length and deletion mutants of the c-FLIP promoter in NSCs", "description": "(§1) All animal used were treated in accordance with the Animal Care and Use Committee guideline at Taipei Veterans General Hospital. Adult Sprague-Dawley rats (8 weeks old, 250 g) were anesthetized with intraperitoneal phenobarbital (Sigma, USA). The location of their brains was mapped: then, the brain was surgically separated from the hippocampus region with the procedure. Tissues from the hippocampus of the adult SD rats were dissociated and incubated in Hank's balanced salt solution (HB'SS) containing collagenase (78 units/ml) and hyaluronidase (38 units/ml) for 10 mins at 37°C. The tissues were then mechanically dissected and placed in a trypsin solution (1.33 mg/ml) at 37°C for another 10 mins. Dissociated cells were then centrifuged at 150g for 5 mins. The enzyme solution was then removed and replaced with serum-free culture media composed of Dulbecco modified Eagle medium (DMEM) and F-12 nutrient (1:1) including insulin (25 µg/mL), transferrin (100 µg/mL), progesterone (20 nM), putrescine (60µM), sodium selenite (30 nM), and human […] epidermal growth factor (EGF) 20 ng/mL and fibroblast growth factor-basic (bFGF) 20 ng/mL (R&D Systems, Minneapolis, MN). Viable cells were counted by trypan blue exclusion and plated as 5000 cells/200 µL per well in 96-well plates (Corning, Acton, MA) with no substrate pretreatment. […]"}, "c-FLIP": {"system": "c-FLIP", "test": "c-FLIP mRNA expression in fluoxetine-treated NSCs (real-time RT-PCR)", "assay_type": "cell-based, Sprague-Dawley rats", "settings": "FL-treated NSCs", "description": "(§2) All animal used were treated in accordance with the Animal Care and Use Committee guideline at Taipei Veterans General Hospital. Adult Sprague-Dawley rats (8 weeks old, 250 g) were anesthetized with intraperitoneal phenobarbital (Sigma, USA). The location of their brains was mapped: then, the brain was surgically separated from the hippocampus region with the procedure. Tissues from the hippocampus of the adult SD rats were dissociated and incubated in Hank's balanced salt solution (HB'SS) containing collagenase (78 units/ml) and hyaluronidase (38 units/ml) for 10 mins at 37°C. The tissues were then mechanically dissected and placed in a trypsin solution (1.33 mg/ml) at 37°C for another 10 mins. Dissociated cells were then centrifuged at 150g for 5 mins. […] Viable cells were counted by trypan blue exclusion and plated as 5000 cells/200 µL per well in 96-well plates (Corning, Acton, MA) with no substrate pretreatment.\nFor real-time RT-PCR, the total RNA was extracted using the RNAeasy kit (Qiagen, Valencia, CA, USA) as previously described C.L. Kao et al., Mod Pathol 18 (2005) 769-778.[15]. […] The quantification in the unknown samples was performed by the LightCycler Relative Quantification Software version 3.3 (Roche Molecular Systems, Alameda, CA, USA). […]"}, "c-FLIPL": {"system": "c-FLIPL", "test": "c-FLIP protein expression in fluoxetine-treated NSCs (Western analysis)", "assay_type": "cell-based, Sprague-Dawley rats", "settings": "FL-treated NSCs", "description": "as §2, with “pretreatment. […]” for “pretreatment.”\nAn avidin-biotin complex method was used for the immunohistochemical staining in the differentiated NSCs. […] Immunoreactive signals were detected with a mixture of biotinylated rabbit antimouse IgG and Fluoesave (Calbiochem, La Jolla, CA, USA) under immunofluorescent microscope (Olympus FV300)."}, "[7]": {"system": "inactive caspases 8 (pro-form)", "test": "Protein level of inactive caspase 8 (pro-form) in fluoxetine-treated NSCs", "assay_type": "cell-based, Sprague-Dawley rats", "settings": "different concentrations of fluoxetine treatment", "description": "as §1"}, "[8]": {"system": "inactive caspases 3 (pro-form)", "test": "Protein level of inactive caspase 3 (pro-form) in fluoxetine-treated NSCs", "assay_type": "cell-based, Sprague-Dawley rats", "settings": "different concentrations of fluoxetine treatment", "description": "as §1"}},
  "data": [
    {"compound": "CCN1CCN(C(=O)N[C@@H](C(=O)N[C@@H]2C(=O)N3C(C(=O)O)=C(CSc4nnnn4C)CS[C@H]23)c2ccc(O)cc2)C(=O)C1=O", "note": "[cefoperazone]", "values": [
      {"measurement": "cefoperazone in microdialysate from rat biliary duct", "setting": "[1]", "result": 27.8, "unit": "µg/mL"}
    ]},
    {"compound": "N#CC(=C(/N)Sc1ccccc1N)/C(C#N)=C(\\N)Sc1ccccc1N", "note": "[U0126]", "values": [
      {"measurement": "Bcl-2 expression induced by IM in NSCs", "setting": "Bcl-2 protein", "result": "effectively blocked"},
      {"measurement": "cell viability in the LPS-treated NSCs with IM", "setting": "LPS-treated NSCs [2]", "result": "dramatically decreased"},
      {"measurement": "apoptotic activities (caspase 8) in LPS- and IM-treated NSCs", "setting": "caspase 8", "result": "significantly enhanced"},
      {"measurement": "apoptotic activities (caspase 3) in LPS- and IM-treated NSCs", "setting": "caspase 3", "result": "significantly enhanced"},
      {"measurement": "apoptotic activities (TUNEL) in LPS- and IM-treated NSCs", "setting": "LPS-treated NSCs [3]", "result": "significantly enhanced"},
      {"measurement": "levels of IL-1β in LPS-treated NSCs with IM", "setting": "IL-1β", "result": "significantly increased"},
      {"measurement": "levels of IL-6 in LPS-treated NSCs with IM", "setting": "IL-6", "result": "significantly increased"},
      {"measurement": "levels of TNF-α in LPS-treated NSCs with IM", "setting": "TNF-α", "result": "significantly increased"},
      {"measurement": "percentages of MAP-2-positive cells in IM-treated NSCs", "setting": "NSCs [4]", "result": "significantly decrease"},
      {"measurement": "percentages of serotonin (5-HT)-positive cells in IM-treated NSCs", "setting": "NSCs [5]", "result": "significantly decrease"},
      {"measurement": "production of 5-HT of the IM-treated NSCs", "setting": "NSCs [6]", "result": "significantly diminished"}
    ]},
    {"compound": "CNCCC(Oc1ccc(C(F)(F)F)cc1)c1ccccc1", "note": "(centres unmarked) [FL, fluoxetine]", "values": [
      {"measurement": "activation of c-FLIP promoter (luciferase assay)", "setting": "c-FLIP promoter", "result": "c-FLIP promoter region from bp -414 to -133 was necessary for its activation by FL"},
      {"measurement": "mRNA expression of c-FLIP", "setting": "c-FLIP", "result": "up-regulated"},
      {"measurement": "protein expression of c-FLIP", "setting": "c-FLIPL", "result": "up-regulated"},
      {"measurement": "protein levels of inactive caspases 8 (pro-form)", "setting": "[7]", "result": "not decreased"},
      {"measurement": "protein levels of inactive caspases 3 (pro-form)", "setting": "[8]", "result": "not decreased"}
    ]}
  ]
}
